For 31 molecules, CC50 and EC50 results are on record in ChEMBL document CHEMBL1136078, “Fundamental structure-activity relationships associated with a new structural class of respiratory syncytial virus inhibitor” (Bioorg Med Chem Lett, 2003).

The test system of one experiment is HEp-2. The experiment is described as follows: Concentration that causes cytotoxicity to uninfected HEp-2 human lung carcinoma cell line. It is filed as functional.
In experiment [1] the test system is Respiratory syncytial virus. The experiment is described as follows: Antiviral activity against respiratory syncytial virus in HEp-2 human lung carcinoma cell line. It is filed as functional, organism-based.
Experiment [2] concerns Respiratory syncytial virus. As to the kind of experiment: Antiviral activity against respiratory syncytial virus in HEp-2 human lung carcinoma cell line; […]. Format: functional, organism-based.

For `c1ccc(Cn2c(Cn3nnc4ccccc43)nc3ccccc32)cc1`, the CC50 in the experiment with HEp-2 was 9 µM. Besides, the EC50 in experiment [1] came to 10.5 µM.

Molecule `C[S+]([O-])CCn1c(Cn2nnc3ccccc32)nc2ccccc21` (stereo not given) yielded a CC50 in the experiment on HEp-2 of 56.4 µM. The molecule also showed an EC50 in experiment [1] of 0.43 µM.

In the experiment on HEp-2, `CC(C)CCn1c(Cn2nc3ccccc3n2)nc2ccccc21` showed a CC50 of 13.5 µM. This molecule also registered a 50% effective concentration (EC50) in experiment [1] of 0.44 µM.

Regarding `CCN(CC)CCCn1c(Cn2nnc3ccccc32)nc2ccccc21`, the EC50 entry in experiment [2] is given as “Not Active”.

For `CC(C)CCCn1c(Cn2nnc3ccccc32)nc2ccccc21`, it took 24 µM to reach half-maximal cytotoxicity in the experiment on HEp-2 (CC50). In experiment [1], this molecule returned a 50% effective concentration (EC50) of 0.19 µM.

The molecule `CC(C)n1c(Cn2nc3ccccc3n2)nc2ccccc21` yielded a CC50 in the experiment on HEp-2 of 58 µM. In experiment [1], this molecule gave an EC50 of 51.5 µM.

For the molecule `CCN(CC)OC(=O)Cn1c(Cn2nc3ccccc3n2)nc2ccccc21`, the EC50 result in experiment [2] was “Not Active”.

`CC(C)n1c(Cn2nnc3ccccc32)nc2ccccc21` came in with a CC50 with HEp-2 of 129 µM. The same molecule came in with an EC50 in experiment [1] of 15.5 µM.

`CC(O)CCn1c(Cn2nnc3ccccc32)nc2ccccc21` (stereo not given) came in with a CC50 with HEp-2 of more than 309 µM. The concentration for a half-maximal effect (EC50) in experiment [1] worked out at 0.12 µM.

On to `CC(C)Cn1c(Cn2nc3ccccc3n2)nc2ccccc21`, for which it took 106 µM to reach half-maximal cytotoxicity with HEp-2 (CC50). The EC50 in experiment [1] worked out at 47.5 µM.

With `O=C(O)Cn1c(Cn2nnc3ccccc32)nc2ccccc21`, in experiment [2], the 50% effective concentration (EC50) entry is reported as “Not Active”. Also, the half-maximal cytotoxic concentration (CC50) in the experiment with HEp-2 came out at 303 µM.

On to `CC(C)(C)OC(=O)CCn1c(Cn2nnc3ccccc32)nc2ccccc21`, for which it took 9.98 µM to reach half-maximal cytotoxicity with HEp-2 (CC50). Besides, in experiment [1], it took 4.31 µM to reach a half-maximal effect (EC50).

The molecule `O=C(Cn1c(Cn2nnc3ccccc32)nc2ccccc21)c1ccccc1` showed a CC50 in the experiment with HEp-2 of 18 µM. For the same molecule, the concentration giving a half-maximal response (EC50) in experiment [1] is 2.2 µM.

On to `CC(=O)CCn1c(Cn2nnc3ccccc32)nc2ccccc21`, for which the CC50 in the experiment on HEp-2 turned out to be 59 µM. Besides, the EC50 in experiment [1] was 0.52 µM.

For the molecule `c1ccc(CCn2c(Cn3nnc4ccccc43)nc3ccccc32)cc1`, the CC50 in the experiment with HEp-2 stood at 2.6 µM. For the same molecule, in experiment [1], the half-maximal effective concentration (EC50) is 0.77 µM.

In the case of `COC(=O)Cn1c(Cn2nnc3ccccc32)nc2ccccc21`, the EC50 result in experiment [2] is “Not Active”. In the experiment on HEp-2, this molecule came in with a CC50 of 374 µM.

In the experiment with HEp-2, `CN(C)CCCn1c(Cn2nc3ccccc3n2)nc2ccccc21` yielded a CC50 of 182 µM. The EC50 in experiment [1] was found to be 3.6 µM.

`NC(=O)CCn1c(Cn2nnc3ccccc32)nc2ccccc21`: half-maximal cytotoxicity in the experiment with HEp-2 (CC50) was put at 4.28 µM. In experiment [1], this molecule came in with an EC50 of 2.1 µM.

As for `CCN(CC)OC(=O)Cn1c(Cn2nnc3ccccc32)nc2ccccc21`, the EC50 result in experiment [2] is recorded as “Not Active”. The molecule further registered a half-maximal cytotoxic concentration (CC50) with HEp-2 of 250 µM.

`CC(C)Cn1c(Cn2nnc3ccccc32)nc2ccccc21`: in experiment [2], the EC50 entry is on record as “Not Active”. Besides, the 50% cytotoxic concentration (CC50) in the experiment with HEp-2 amounted to 15.5 µM.

For `CCCCn1c(Cn2nnc3ccccc32)nc2ccccc21`, the midpoint of cytotoxicity with HEp-2, the CC50, lay at 12 µM. The response in experiment [1] was half-maximal at 0.066 µM (EC50).

`CS(=O)(=O)CCn1c(Cn2nnc3ccccc32)nc2ccccc21` had a CC50 in the experiment with HEp-2 of 337 µM. In experiment [1], this molecule had an EC50 of 0.25 µM.

Turning to `OC(Cn1c(Cn2nnc3ccccc32)nc2ccccc21)c1ccccc1` (stereo not given), in the experiment with HEp-2, it took 37.6 µM to reach half-maximal cytotoxicity (CC50). It took 0.59 µM to reach a half-maximal effect in experiment [1] (EC50).

As to `CC(C)=CCn1c(Cn2nnc3ccccc32)nc2ccccc21`, it took 102 µM to reach half-maximal cytotoxicity with HEp-2 (CC50). The molecule also yielded an EC50 in experiment [1] of 3.3 µM.

`OCCn1c(Cn2nnc3ccccc32)nc2ccccc21` had a CC50 with HEp-2 of 205 µM. Moreover, in experiment [1], a half-maximal response (EC50) required 7.7 µM.

In turn, `CSCCn1c(Cn2nnc3ccccc32)nc2ccccc21` had a CC50 with HEp-2 of 166 µM. Moreover, it took 0.3 µM to reach a half-maximal effect in experiment [1] (EC50).

In turn, `O=C(O)CCn1c(Cn2nnc3ccccc32)nc2ccccc21` came in with a CC50 in the experiment with HEp-2 of 184 µM. In addition, the EC50 in experiment [1] was 18.1 µM.

In the experiment on HEp-2, `c1ccc2[nH]c(Cn3nnc4ccccc43)nc2c1` displayed a CC50 of 164 µM. The EC50 in experiment [1] amounted to 31.1 µM.

Take `CC(C)CCn1c(Cn2nnc3ccccc32)nc2ccccc21`: the CC50 with HEp-2 was found to be 39.9 µM. It took 0.1 µM to reach a half-maximal effect in experiment [1] (EC50).

In the experiment with HEp-2, `CN(C)CCCn1c(Cn2nnc3ccccc32)nc2ccccc21` showed a CC50 of 197 µM. For the same molecule, in experiment [1], the EC50 was 1.1 µM.

In the experiment on HEp-2, `N#CCCn1c(Cn2nnc3ccccc32)nc2ccccc21` gave a CC50 of 49.3 µM. Moreover, the response in experiment [1] was half-maximal at 2.69 µM (EC50).

What is called CC50 is the concentration giving 50% cytotoxicity. Higher therefore signals better tolerance by the cells. A word on the EC50: it is the concentration giving half of the maximal effect. A high value points to a less potent agent.
